Laboratory results reported in BindingDB's records for doi:10.1038/350610a0 (University of Toronto, 1991).
Values joined by “and” are separate entries in the source; they are usually repeats but may differ in a detail not shown here. Identical values can stand only once.

molecular target: D(2) dopamine receptor (Homo sapiens, UniProt P14416)
Sequence (P14416 whole entry): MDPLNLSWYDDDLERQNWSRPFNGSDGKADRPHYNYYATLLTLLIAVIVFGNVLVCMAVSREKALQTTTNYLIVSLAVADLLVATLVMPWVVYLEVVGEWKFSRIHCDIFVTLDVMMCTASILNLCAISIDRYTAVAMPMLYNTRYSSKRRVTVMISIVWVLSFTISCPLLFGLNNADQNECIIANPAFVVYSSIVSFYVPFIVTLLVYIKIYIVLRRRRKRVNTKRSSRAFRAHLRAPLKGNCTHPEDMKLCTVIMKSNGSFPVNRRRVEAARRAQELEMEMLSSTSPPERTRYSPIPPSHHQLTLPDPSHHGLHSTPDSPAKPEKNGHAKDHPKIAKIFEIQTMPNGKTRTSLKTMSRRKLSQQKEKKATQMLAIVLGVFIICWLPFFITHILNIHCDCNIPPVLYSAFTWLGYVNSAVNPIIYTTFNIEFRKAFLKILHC

SMILES | Ki
CC(C)C[C@H]1C(=O)N2CCC[C@H]2[C@]2(O)O[C@](NC(=O)[C@@H]3C=C4c5cccc6[nH]c(Br)c(c56)C[C@H]4N(C)C3)(C(C)C)C(=O)N12 [Bromocriptine+ (GTP+)] | 12.6 nM

molecular target: T1, Dopamine receptor D4 (Canis lupus familiaris, UniProt Q589Y6)
T1 sequence (Q589Y6 whole entry): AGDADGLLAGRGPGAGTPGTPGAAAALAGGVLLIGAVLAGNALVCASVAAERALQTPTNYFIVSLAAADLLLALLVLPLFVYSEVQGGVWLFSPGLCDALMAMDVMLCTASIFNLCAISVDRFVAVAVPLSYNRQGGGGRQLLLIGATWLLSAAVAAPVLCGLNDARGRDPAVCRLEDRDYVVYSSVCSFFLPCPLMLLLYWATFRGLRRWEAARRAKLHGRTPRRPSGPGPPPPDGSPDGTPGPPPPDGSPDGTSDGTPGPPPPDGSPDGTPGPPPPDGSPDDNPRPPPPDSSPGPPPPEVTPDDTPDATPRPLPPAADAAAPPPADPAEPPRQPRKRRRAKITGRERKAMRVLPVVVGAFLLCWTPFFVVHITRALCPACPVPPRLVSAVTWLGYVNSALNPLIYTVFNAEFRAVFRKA

SMILES | Ki
CN1CCN(CCCN2c3ccccc3Sc3ccc(C(F)(F)F)cc32)CC1 | 1.2 nM and 3 nM
CCCN1CCC[C@@H]2Cc3n[nH]cc3C[C@H]21 [NSC_54562] | 4.8 nM and 46 nM
NCC(O)c1ccc(O)c(O)c1 (stereo not drawn) [Noradrenaline,(+)] | 6000 nM and 1760 nM
CN1CCc2cccc3c2[C@H]1Cc1ccc(O)c(O)c1-3 [APOKYN] | 2 nM and 4.1 nM
O=C(c1ccc(F)cc1)C1CCN(CCn2c(=O)[nH]c3ccccc3c2=O)CC1 [3-(2-{4-[(4-fluorophenyl)carbonyl]piperidin-1-yl}ethyl)-1,2,3,4-tetrahydroquinazoline-2,4-dione] | 192 nM and 148 nM
NCCc1c[nH]c2ccc(O)cc12 [[3H]-5-HT] | 4180 nM
CN1CCN(C2=c3ccccc3=Nc3ccc(Cl)cc3N2)CC1 [6-chloro-10-(4-methylpiperazin-1-yl)-2,9-diazatricyclo[9.4.0.0^{3,8}]pentadeca-1,3(8),4,6,10,12,14-heptaene] | 9 nM
NCCc1ccc(O)c(O)c1 | 7.5 nM and 28 nM

molecular target: T2, D(4) dopamine receptor (Rattus norvegicus, UniProt P30729)
T2 sequence (P30729 whole entry): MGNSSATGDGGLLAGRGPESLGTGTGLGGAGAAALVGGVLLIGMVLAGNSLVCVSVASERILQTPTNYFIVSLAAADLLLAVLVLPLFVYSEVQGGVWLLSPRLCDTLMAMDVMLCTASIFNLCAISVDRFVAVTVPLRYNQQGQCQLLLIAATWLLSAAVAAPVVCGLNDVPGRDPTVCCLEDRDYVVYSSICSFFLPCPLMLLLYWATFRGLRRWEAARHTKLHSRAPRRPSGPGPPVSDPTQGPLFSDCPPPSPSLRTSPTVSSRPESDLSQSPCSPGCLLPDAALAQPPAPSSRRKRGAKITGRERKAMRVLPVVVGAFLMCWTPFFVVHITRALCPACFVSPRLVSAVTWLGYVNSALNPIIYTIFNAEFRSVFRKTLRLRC

SMILES | Ki
CN1CCN(CCCN2c3ccccc3Sc3ccc(S(=O)(=O)N(C)C)cc32)CC1 [NSC_92178] | 53 nM
CCN1CCC[C@H]1CNC(=O)c1c(O)c(Cl)cc(Cl)c1OC [3,5-Dichloro-N-(1-ethyl-pyrrolidin-2-ylmethyl)-2-hydroxy-6-methoxy-benzamide (raclopride)] | 237 nM
CC(C)C[C@H]1C(=O)N2CCC[C@H]2[C@]2(O)O[C@](NC(=O)[C@@H]3C=C4c5cccc6[nH]c(Br)c(c56)C[C@H]4N(C)C3)(C(C)C)C(=O)N12 [Bromocriptine+ (GTP+)] | 340 nM
Nc1nc2c(ncn2[C@@H]2O[C@H](COP(=O)(O)OP(=O)(O)OP(=O)(O)O)[C@@H](O)[C@H]2O)c(=O)[nH]1 [Dopamine+ (GTP+)] | 450 nM
O=c1[nH]c2ccccc2n1C1CCN(CCCC(c2ccc(F)cc2)c2ccc(F)cc2)CC1 [1-(1-(4,4-bis(4-fluorophenyl)butyl)piperidin-4-yl)-1H-benzo[d]imidazol-2(3H)-one] | 43 nM
